“And” between values parts separate entries of the source, which are not always exact repeats. Equal values may be shown once.
Tests used:
[1] = system: NCI-H2122 xenograft tumors; assay: Antitumor efficacy in NCI-H2122 xenograft model; type: in vivo, female Hsd athymic nude mice; settings: Day 45
Source text: (§1) Grow the human NSCLC line NCI-H441 or NCI-H2122 in RPMI 1640 medium+10% fetal bovine serum. Harvest sub-confluent cells with trypsin and rinse twice with growth medium without serum. For subcutaneous tumors, initiate growth by subcutaneous injection of 5×10^6 cells in a 1:1 mixture of Hank's balanced salt solution (HBSS) and Matrigel (BD Bioscience, Franklin Lakes, N.J.) in the rear flank of each subject animal. When mean tumors volumes reach approximately 150-200 mm^3 in size, randomize the animals by tumor size and body weight by randomization techniques well known in the art and place into their respective treatment groups using the number of animals per group as indicated.
Capture tumor size and body weight using Web Director. Estimate tumor volume (V) by using the formula: V=0.536L×W^2 where L=larger of measured diameter and W=smaller of perpendicular diameter. Transform the tumor volume data to a log scale to equalize variance across time and treatment groups. […] Calculate relative changes in tumor volume (% T/C) using the tumor volume measurements taken nearest to the last day of dosing with Compound A, whereas the baseline tumor volume is the volume recorded on or just prior to first day of dosing. […] Tumor growth inhibition is observed in those instances where the calculated values for % T/C are less than 100% whereby greater inhibition results in smaller % T/C values. […]

[2] = Body weight (tolerability), NCI-H2122 xenograft study; type: in vivo, female Hsd athymic nude mice; settings: Compound A 50 or 75 mg/kg monotherapy
Procedure: (§2) Assess antitumor efficacy of the combination of DC101 and Compound A by measuring tumor volume by three dimensional caliper measurements twice a week during the course of the study. Measure body weight twice weekly during the course of the study, as a general indicator of tolerability.
Treat female Hsd athymic nude mice (n=8) bearing NCI-H2122 xenograft tumors with Compound A by oral gavage (PO) once daily for 28 days at a dose of 50 or 75 mg/kg using 0.2 mL/dose. Administer Compound A starting after the mean tumor volumes reach approximately 150-200 mm^3 in size (day 16 after tumor implantation) and end treatment on day 43. Measure tumor volume and body weight twice a week for the duration of the treatment period.
Treat female Hsd athymic nude mice (n=8) bearing NCI-H2122 xenograft tumors with DC101 by intraperitoneal injection at a dose 20 mg/kg. Administer DC101 starting after the mean tumor volumes reach approximately 150-200 mm^3 in size (day 16 after tumor implantation) and continue twice weekly for four weeks. Measure tumor volume and body weight twice a week for the duration of the treatment period.
Treat female Hsd athymic nude mice (n=8) bearing NCI-H2122 xenograft tumors with Compound A by oral gavage (PO) once daily for 28 days at a dose of 50 or 75 mg/kg using 0.2 mL/dose and intraperitoneal inject DC101 twice weekly at a dose of 20 mg/kg. […]

[3] = system: NCI-H441 xenograft tumors; assay: Antitumor efficacy in NCI-H441 xenograft model, Study 1; type: in vivo, female Hsd athymic nude mice
Source text: as §1
Capture tumor size and body weight using Web Director. Estimate tumor volume (V) by using the formula: V=0.536L×W^2 where L=larger of measured diameter and W=smaller of perpendicular diameter. Transform the tumor volume data to a log scale to equalize variance across time and treatment groups. Analyze the log volume data with a two-way repeated measures analysis of variance by time and treatment using the MIXED procedures in SAS software (Version 9.3). The correlation model for the repeated measures is Spatial Power. Compare treated groups compared to the control group at each time point. Use the MIXED procedure also separately for each treatment group to calculate adjusted means and standard errors at each time point. Both analyses account for the autocorrelation within each animal and the loss of data that occurred when animals with large tumors were removed from the study early. Plot the adjusted means and standard errors for each treatment group versus time. Calculate relative changes in tumor volume (% T/C) using the tumor volume measurements taken nearest to the last day of dosing with Compound A, whereas the baseline tumor volume is the volume recorded on or just prior to first day of dosing. Calculate % T/C values using the formula % T/C=100×ΔT/ΔC, whereby T=mean tumor volume of the compound treated group, ΔT=mean tumor volume of the compound treated group minus the mean tumor volume on the baseline day, C=mean tumor volume of the control (vehicle) group, and ΔC=mean tumor volume of the control group minus the mean tumor volume on the baseline day. Tumor growth inhibition is observed in those instances where the calculated values for % T/C are less than 100% whereby greater inhibition results in smaller % T/C values. If ΔT was <0, then a tumor regression value was calculated instead of % T/C whereby % Regression=100×ΔT/Tinitial such that Tinitial=the grand mean of the tumor volume for all the treatment groups. Any negative values for % T/C listed are values for % Regression. […]

[4] = Body weight (tolerability), NCI-H441 xenograft Study 1; type: in vivo, female Hsd athymic nude mice; settings: baseline (day 14) versus day 42
Procedure: as §2
Treat female Hsd athymic nude mice (n=8) bearing NCI-H441 xenograft tumors with Compound A by oral gavage once daily for 28 days at a dose of 50 or 100 mg/kg using 0.2 mL/dose. Administer Compound A starting after the mean tumor volumes reach approximately 150-200 mm^3 in size (day 15 after tumor implantation) and end treatment 28 days later (on day 42). Measure tumor volume and body weight twice a week for the duration of the treatment period.
Treat female Hsd athymic nude mice (n=8) bearing NCI-H441 xenograft tumors with DC101 twice weekly for four weeks by intraperitoneal injection at doses of 10, 20 or 40 mg/kg. Administer DC101 starting after the mean tumor volumes reach approximately 150-200 mm^3 in size (day 15 after tumor implantation) and end on day 39. Measure tumor volume and body weight twice a week for the duration of the treatment period.
Treat female Hsd athymic nude mice (n=8) bearing NCI-H441 xenograft tumors with Compound A by oral gavage once daily for 28 days at a dose of 50 mg/kg using 0.2 mL/dose and intraperitoneal inject DC101 twice weekly at a dose of 20 mg/kg. […]

[5] = system: NCI-H441 xenograft tumors; assay: Antitumor efficacy in NCI-H441 xenograft model, Study 2; type: in vivo, female Hsd athymic nude mice
Source text: as §1
Capture tumor size and body weight using Web Director. Estimate tumor volume (V) by using the formula: V=0.536L×W^2 where L=larger of measured diameter and W=smaller of perpendicular diameter. Transform the tumor volume data to a log scale to equalize variance across time and treatment groups. Analyze the log volume data with a two-way repeated measures analysis of variance by time and treatment using the MIXED procedures in SAS software (Version 9.3). The correlation model for the repeated measures is Spatial Power. Compare treated groups compared to the control group at each time point. Use the MIXED procedure also separately for each treatment group to calculate adjusted means and standard errors at each time point. Both analyses account for the autocorrelation within each animal and the loss of data that occurred when animals with large tumors were removed from the study early. Plot the adjusted means and standard errors for each treatment group versus time. Calculate relative changes in tumor volume (% T/C) using the tumor volume measurements taken nearest to the last day of dosing with Compound A, whereas the baseline tumor volume is the volume recorded on or just prior to first day of dosing. Calculate % T/C values using the formula % T/C=100×ΔT/ΔC, whereby T=mean tumor volume of the compound treated group, ΔT=mean tumor volume of the compound treated group minus the mean tumor volume on the baseline day, C=mean tumor volume of the control (vehicle) group, and ΔC=mean tumor volume of the control group minus the mean tumor volume on the baseline day. Tumor growth inhibition is observed in those instances where the calculated values for % T/C are less than 100% whereby greater inhibition results in smaller % T/C values. If ΔT was <0, then a tumor regression value was calculated instead of % T/C whereby % Regression=100×ΔT/Tinitial such that Tinitial=the grand mean of the tumor volume for all the treatment groups. Any negative values for % T/C listed are values for % Regression.
as §2
Formulations for Compound A and DC101: Formulate Compound A on a weekly basis in 1% hydroxyethyl cellulose (HEC) in 25 mM phosphate buffer (PB) at a pH of 2 and store at 4° C. Solubilize DC101 in phosphate buffered saline and store at 4° C.
Control Group: administer to the animals in the control group, both vehicles used for Compound A and DC101 according to the same schedules for each compound, respectively.
For the monotherapy groups, treat the animals with the desired compound as directed and with the vehicle for the compound not being dosed by following the schedule for the non-dosed compound.
Treat female Hsd athymic nude mice (n=7) bearing NCI-H441 xenograft tumors with Compound A by oral gavage (PO) once daily for 28 days at a dose of 50 or 75 mg/kg using 0.2 mL/dose. Administer Compound A starting after the mean tumor volumes reach approximately 150-200 mm^3 in size (day 36 after tumor implantation) and end treatment 28 days later (on day 63). […]

[6] = Body weight (tolerability), NCI-H441 xenograft Study 2; type: in vivo, female Hsd athymic nude mice
Procedure: as §2
Treat female Hsd athymic nude mice (n=7) bearing NCI-H441 xenograft tumors with Compound A by oral gavage (PO) once daily for 28 days at a dose of 50 or 75 mg/kg using 0.2 mL/dose. Administer Compound A starting after the mean tumor volumes reach approximately 150-200 mm^3 in size (day 36 after tumor implantation) and end treatment 28 days later (on day 63). Measure tumor volume and body weight twice a week for the duration of the treatment period.
Treat female Hsd athymic nude mice (n=7) bearing NCI-H441 xenograft tumors with DC101 twice weekly for four weeks by intraperitoneal injection at a dose 20 mg/kg. Administer DC101 starting after the mean tumor volumes reach approximately 150-200 mm^3 in size (day 36 after tumor implantation). Measure tumor volume and body weight twice a week for the duration of the treatment period.
Treat female Hsd athymic nude mice (n=7) bearing NCI-H441 xenograft tumors with Compound A by oral gavage once daily for 28 days at a dose of 50 mg/kg or 75 mg/kg using 0.2 mL/dose and intraperitoneal inject DC101 twice weekly at a dose of 20 mg/kg. […]

[7] = system: Stage IV NSCLC; assay: Phase 1b study of abemaciclib in combination with ramucirumab, tumor response; type: in vivo, human; parameters: key: PR is partial response;; SD is stable disease;; PD is progressive disease;; NDR is no data reported; settings: preliminary
Procedure: This study is a multicenter, nonrandomized, open-label, dose-escalation Phase 1b study of oral dosing of [5-(4-ethyl-piperazin-1-ylmethyl)-pyridin-2-yl]-[5-fluoro-4-(7-fluoro-3-isopropyl-2-methyl-3H-benzoimidazol-5-yl)-pyrimidin-2-yl]-amine at 100 mg, 150 mg, or 200 mg every 12 (±3) hours on Days 1 through 21 of a 21-day cycle. in combination with ramucirumab administered at 10 mg/kg over a 60-minute IV infusion followed by a 1-hour observation period on Day 1 of a 21-day cycle for patients with Stage IV NSCLC.
The primary objective of this study is to evaluate the safety and tolerability of [5-(4-ethyl-piperazin-1-ylmethyl)-pyridin-2-yl]-[5-fluoro-4-(7-fluoro-3-isopropyl-2-methyl-3H-benzoimidazol-5-yl)-pyrimidin-2-yl]-amine when administered orally in combination with ramucirumab to patients with Stage IV NSCLC using Common Terminology Criteria for Adverse Events (CTCAE version 4.0, NCI 2009).
The secondary objectives of the study are to document the antitumor activity of [5-(4-ethyl-piperazin-1-ylmethyl)-pyridin-2-yl]-[5-fluoro-4-(7-fluoro-3-isopropyl-2-methyl-3H-benzoimidazol-5-yl)-pyrimidin-2-yl]-amine when given in combination with ramucirumab; to determine the pharmacokinetics (PK) of [5-(4-ethyl-piperazin-1-ylmethyl)-pyridin-2-yl]-[5-fluoro-4-(7-fluoro-3-isopropyl-2-methyl-3H-benzoimidazol-5-yl)-pyrimidin-2-yl]-amine when given in combination with ramucirumab; and to characterize changes in patient-reported pain and disease-related symptoms collected via the MD Anderson Symptom Inventory-Lung Cancer (MDASI-LC).
[5-(4-Ethyl-piperazin-1-ylmethyl)-pyridin-2-yl]-[5-fluoro-4-(7-fluoro-3-isopropyl-2-methyl-3H-benzoimidazol-5-yl)-pyrimidin-2-yl]-amine is supplied as capsules at 100 mg, 150 mg, or 200 mg for oral administration.
Ramucirumab is supplied in a sterile, preservative-free solution for infusion of ramucirumab formulated in an aqueous solution at a concentration of […] (500 mg/50-mL vial). The buffer contains 10 mM histidine, 75 mM sodium chloride, 133 mM glycine, and 0.01% polysorbate 80, pH 6.0. Ramucirumab is supplied in single-use 50-mL nominal volume glass vials.
The first dose of ramucirumab is dependent upon the patient's baseline body weight in kilograms. Subsequent doses of ramucirumab must be recalculated if there is a ≥10% change (increase or decrease) in body weight from last dose calculation; subsequent doses may be recalculated if there is a <10% change (increase or decrease) in body weight from last dose calculation.

[8] = Compound A 50 mg/kg monotherapy, end of treatment period
[9] = Compound A 50 mg/kg monotherapy
[10] = Compound A 75 mg/kg monotherapy
[11] = abemaciclib 150 mg every 12 hours + ramucirumab 10 mg/kg IV Day 1 of 21-day cycle, individual patients 1-3
[12] = abemaciclib 200 mg every 12 hours + ramucirumab 10 mg/kg IV Day 1 of 21-day cycle, individual patients 4-8

CCN1CCN(Cc2ccc(Nc3ncc(F)c(-c4cc(F)c5nc(C)n(C(C)C)c5c4)n3)nc2)CC1.CS(=O)(=O)O [Compound A, [5-(4-Ethyl-piperazin-1-ylmethyl)-pyridin-2-yl]-[5-fluoro-4-(7-fluoro-3-isopropyl-2-methyl-3H-benzoimidazol-5-yl)-pyrimidin-2-yl]-amine methanesulfonate]
% T/C ([1]; Compound A 50 mg/kg PO once daily 28 days): 64.3% | % T/C ([1]; Compound A 75 mg/kg PO once daily 28 days): 37.3% | changes in relative body weight [2]: not statistically different from the control group | partial response (animals) [3, 8]: 6/8 | stable disease (animals) [3, 8]: 2/8 | partial response (animals) ([3]; Compound A 100 mg/kg monotherapy, end of treatment period): 8/8 | mean percent regression ([3]; Compound A 100 mg/kg oral gavage once daily 28 days, study day 42): −22.8% | maximum relative body weight loss ([4]; Compound A 50 mg/kg): 2.7% | maximum relative body weight loss ([4]; Compound A 100 mg/kg): 4.7% | % T/C ([5]; Compound A 50 mg/kg PO once daily 28 days, Day 67): 7.0% | combined frequency for stable disease and partial response (disease control rate) [5, 9]: 4/7 | mice achieving complete regression [5, 9]: 2/7 | regression ([5]; Compound A 75 mg/kg PO once daily 28 days, Day 67): −4.8% | combined frequency for stable disease and partial response (disease control rate) [5, 10]: 6/7 | mice achieving complete regression [5, 10]: 3/7 | maximum relative body weight loss [6, 9]: 5.5% | maximum relative body weight loss [6, 10]: 5.1%

CCN1CCN(Cc2ccc(Nc3ncc(F)c(-c4cc(F)c5nc(C)n(C(C)C)c5c4)n3)nc2)CC1 [abemaciclib, [5-(4-Ethyl-piperazin-1-ylmethyl)-pyridin-2-yl]-[5-fluoro-4-(7-fluoro-3-isopropyl-2-methyl-3H-benzoimidazol-5-yl)-pyrimidin-2-yl]-amine]
Overall Response [7, 11]: SD and PR and PD | Target Response [7, 11]: SD and PR | Overall Response [7, 12]: SD (3×) and PD and PR | Target Response [7, 12]: SD (2×) and PD and PR

From US10238656B2, “Combination therapy for cancer” (Eli Lilly and Company, priority 2014, dated 2019)
